This note sets out measurements from patent publication US9499550B2 (BRISTOL-MYERS SQUIBB COMPANY, priority 2012, dated 2016).

In assay [1] the test system is HCV genotype 1b (Con1) replicon in HUH-7 cells. Nature of the assay: HCV replicon luciferase reporter assay, genotype 1b. The conditions noted are these: Hepatitis C virus, Huh-7, 72 h, HCV genotype 1b replicon luciferase, 3 days incubation. The assay is classed as cell-based. An outline of the steps:
(§1)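 Replicon inhibition for both genotypes was measured as Renilla luciferase signal (EnduRen, 7.5 μM final, 2 h) after 3-day, 37° C exposure of replicon-bearing HUH-7 cells in 4% FCS DMEM, 0.5% DMSO. The 1b construct carries S1179I; the 1a H77 construct carries P1496L and S2204I. Twenty-point, 3-fold dilutions were fitted four-parametrically for EC50, and CC50 was taken from multiplexed Cell Titer-Blue.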

Assay [2] has as its system HCV genotype 1a (H77 strain) replicon in HUH-7 cells. Description: HCV replicon luciferase reporter assay, genotype 1a. The assay is classed as cell-based. The conditions noted are these: Hepatitis C virus, Huh-7, 72 h, HCV genotype 1a replicon luciferase, 3 days incubation. In a few lines:
as §1
A general note: A replicon is a self-replicating genome or part of one, used to study replication in cells.

Read-outs that look alike come from different tables or passages of the source.

What is called EC50 is the concentration needed to bring the measured effect to its halfway point.

Take `[2H]C([2H])([2H])C(OC(=O)N[C@@H]1C(=O)N2C[C@H](Oc3nccc4c5c(ccc34)N(C)CCO5)C[C@H]2C(=O)N[C@]2(C(=O)NS(=O)(=O)C3(C)CC3)C[C@H]2/C=C\CC[C@@H](C)C[C@H]1C)(C([2H])([2H])[2H])C(F)(F)F` [Compound 5298, 1,1,1,3,3,3-hexadeutero-2-(trifluoromethyl)propan-2-yl((2R,6S,7R,9R,13aS,14aR,16aS,Z)-7,9-dimethyl-2-((4-methyl-3,4-dihydro-2H-[1,4]oxazino[2,3-f]isoquinolin-7-yl)oxy)-14a-(((1-methylcyclopropyl)sulfonyl)carbamoyl)-5,16-dioxo-1,2,3,5,6,7,8,9,10,11,13a,14,14a,15,16,16a-hexadecahydrocyclopropa[e]pyrrolo[1,2-a][1,4]diazacyclopentadecin-6-yl)carbamate]: the concentration for a half-maximal effect (EC50) was less than 5.46 nM in assay [1] (read-out: LE_1b (EC50, range)) and less than 5.46 nM in assay [2] (read-out: LE_1a (EC50, range)).

With `C[C@H]1CC/C=C\[C@@H]2C[C@@]2(C(=O)NS(=O)(=O)C2(C)CC2)NC(=O)[C@@H]2C[C@@H](Oc3nccc4c5c(ccc34)N(C)CCO5)CN2C(=O)[C@@H](NC(=O)O[C@@H]2C[C@@H]3C[C@@H]3C2)[C@H](C)C1` [Compound 5299, (1R,3r,5S)-bicyclo[3.1.0]hexan-3-yl((2R,6S,7R,9S,13aS,14aR,16aS,Z)-7,9-dimethyl-2-((4-methyl-3,4-dihydro-2H-[1,4]oxazino[2,3-f]isoquinolin-7-yl)oxy)-14a-(((1-methylcyclopropyl)sulfonyl)carbamoyl)-5,16-dioxo-1,2,3,5,6,7,8,9,10,11,13a,14,14a,15,16,16a-hexadecahydrocyclopropa[e]pyrrolo[1,2-a][1,4]diazacyclopentadecin-6-yl)carbamate], the EC50 in assay [1] (read-out: LE_1b (EC50, range)) was less than 5.46 nM; in assay [2] (read-out: LE_1a (EC50, range)) it was less than 5.46 nM.

As to `C[C@@H]1CC/C=C\[C@@H]2C[C@@]2(C(=O)NS(=O)(=O)C2(C)CC2)NC(=O)[C@@H]2C[C@@H](Oc3nccc4c5c(ccc34)N(C)CCO5)CN2C(=O)[C@@H](NC(=O)O[C@@H]2C[C@@H]3C[C@@H]3C2)[C@H](C)C1` [Compound 5300, (1R,3r,5S)-bicyclo[3.1.0]hexan-3-yl((2R,6S,7R,9R,13aS,14aR,16aS,Z)-7,9-dimethyl-2-((4-methyl-3,4-dihydro-2H-[1,4]oxazino[2,3-f]isoquinolin-7-yl)oxy)-14a-(((1-methylcyclopropyl)sulfonyl)carbamoyl)-5,16-dioxo-1,2,3,5,6,7,8,9,10,11,13a,14,14a,15,16,16a-hexadecahydrocyclopropa[e]pyrrolo[1,2-a][1,4]diazacyclopentadecin-6-yl)carbamate], the EC50 in assay [1] (read-out: LE_1b (EC50, range)) was less than 5.46 nM; in assay [2] (read-out: LE_1a (EC50, range)) it was less than 5.46 nM.

On to `C[C@H]1CC/C=C\[C@@H]2C[C@@]2(C(=O)NS(=O)(=O)C2(C)CC2)NC(=O)[C@@H]2C[C@@H](Oc3nccc4c5c(ccc34)N(C)CCO5)CN2C(=O)[C@@H](NC(=O)NC(C)(C)C)[C@H](C)C1` [Compound 5301, (2R,6S,7R,9S,13aS,14aR,16aS,Z)-6-(3-(tert-butyl)ureido)-7,9-dimethyl-2-((4-methyl-3,4-dihydro-2H-[1,4]oxazino[2,3-f]isoquinolin-7-yl)oxy)-N-((1-methylcyclopropyl)sulfonyl)-5,16-dioxo-1,2,3,5,6,7,8,9,10,11,13a,14,14a,15,16,16a-hexadecahydrocyclopropa[e]pyrrolo[1,2-a][1,4]diazacyclopentadecine-14a-carboxamide], for which the EC50 is less than 5.46 nM in assay [1] (read-out: LE_1b (EC50, range)) and 4.82 to 103 nM in assay [2] (read-out: LE_1a (EC50, range)).

Take `C[C@@H]1CC/C=C\[C@@H]2C[C@@]2(C(=O)NS(=O)(=O)C2(C)CC2)NC(=O)[C@@H]2C[C@@H](Oc3nccc4c5c(ccc34)N(C)CCO5)CN2C(=O)[C@@H](NC(=O)NC(C)(C)C)[C@H](C)C1` [Compound 5302, (2R,6S,7R,9R,13aS,14aR,16aS,Z)-6-(3-(tert-butyl)ureido)-7,9-dimethyl-2-((4-methyl-3,4-dihydro-2H-[1,4]oxazino[2,3-f]isoquinolin-7-yl)oxy)-N-((1-methylcyclopropyl)sulfonyl)-5,16-dioxo-1,2,3,5,6,7,8,9,10,11,13a,14,14a,15,16,16a-hexadecahydrocyclopropa[e]pyrrolo[1,2-a][1,4]diazacyclopentadecine-14a-carboxamide]: the EC50 in assay [1] (read-out: LE_1b (EC50, range)) is less than 5.46 nM; in assay [2] (read-out: LE_1a (EC50, range)), less than 5.46 nM.

For `C[C@H]1CC/C=C\[C@@H]2C[C@@]2(C(=O)NS(=O)(=O)C2(C)CC2)NC(=O)[C@@H]2C[C@@H](Oc3nccc4c5c(ccc34)N(C)CCO5)CN2C(=O)[C@@H](NC(=O)c2ccc(N(C)C)cc2)[C@H](C)C1` [Compound 5303, (2R,6S,7R,9S,13aS,14aR,16aS,Z)-6-(4-(dimethylamino)benzamido)-7,9-dimethyl-2-((4-methyl-3,4-dihydro-2H-[1,4]oxazino[2,3-f]isoquinolin-7-yl)oxy)-N-((1-methylcyclopropyl)sulfonyl)-5,16-dioxo-1,2,3,5,6,7,8,9,10,11,13a,14,14a,15,16,16a-hexadecahydrocyclopropa[e]pyrrolo[1,2-a][1,4]diazacyclopentadecine-14a-carboxamide], the EC50 in assay [1] (read-out: LE_1b (EC50, range)) is less than 5.46 nM; in assay [2] (read-out: LE_1a (EC50, range)), 4.82 to 103 nM.

As to `C[C@@H]1CC/C=C\[C@@H]2C[C@@]2(C(=O)NS(=O)(=O)C2(C)CC2)NC(=O)[C@@H]2C[C@@H](Oc3nccc4c5c(ccc34)N(C)CCO5)CN2C(=O)[C@@H](NC(=O)c2ccc(N(C)C)cc2)[C@H](C)C1` [Compound 5304, (2R,6S,7R,9R,13aS,14aR,16aS,Z)-6-(4-(dimethylamino)benzamido)-7,9-dimethyl-2-((4-methyl-3,4-dihydro-2H-[1,4]oxazino[2,3-f]isoquinolin-7-yl)oxy)-N-((1-methylcyclopropyl)sulfonyl)-5,16-dioxo-1,2,3,5,6,7,8,9,10,11,13a,14,14a,15,16,16a-hexadecahydrocyclopropa[e]pyrrolo[1,2-a][1,4]diazacyclopentadecine-14a-carboxamide], the EC50 is less than 5.46 nM in assay [1] (read-out: LE_1b (EC50, range)) and less than 5.46 nM in assay [2] (read-out: LE_1a (EC50, range)).

Take `C[C@H]1CC/C=C\[C@@H]2C[C@@]2(C(=O)NS(=O)(=O)C2(C)CC2)NC(=O)[C@@H]2C[C@@H](Oc3nccc4c5c(ccc34)N(C)CCO5)CN2C(=O)[C@@H](NC(=O)C(=O)N(C)C)[C@H](C)C1` [Compound 5305, N1-((2R,6S,7R,9S,13aS,14aR,16aS,Z)-7,9-dimethyl-2-((4-methyl-3,4-dihydro-2H-[1,4]oxazino[2,3-f]isoquinolin-7-yl)oxy)-14a-(((1-methylcyclopropyl)sulfonyl)carbamoyl)-5,16-dioxo-1,2,3,5,6,7,8,9,10,11,13a,14,14a,15,16,16a-hexadecahydrocyclopropa[e]pyrrolo[1,2-a][1,4]diazacyclopentadecin-6-yl)-N2,N2-dimethyloxalamide]: the EC50 in assay [1] (read-out: LE_1b (EC50, range)) lay within 4.82 to 103 nM; in assay [2] (read-out: LE_1a (EC50, range)), 4.82 to 103 nM.

For `C[C@@H]1CC/C=C\[C@@H]2C[C@@]2(C(=O)NS(=O)(=O)C2(C)CC2)NC(=O)[C@@H]2C[C@@H](Oc3nccc4c5c(ccc34)N(C)CCO5)CN2C(=O)[C@@H](NC(=O)C(=O)N(C)C)[C@H](C)C1` [Compound 5306, N1-((2R,6S,7R,9R,13aS,14aR,16aS,Z)-7,9-dimethyl-2-((4-methyl-3,4-dihydro-2H-[1,4]oxazino[2,3-f]isoquinolin-7-yl)oxy)-14a-(((1-methylcyclopropyl)sulfonyl)carbamoyl)-5,16-dioxo-1,2,3,5,6,7,8,9,10,11,13a,14,14a,15,16,16a-hexadecahydrocyclopropa[e]pyrrolo[1,2-a][1,4]diazacyclopentadecin-6-yl)-N2,N2-dimethyloxalamide], the 50% effective concentration (EC50) in assay [1] (read-out: LE_1b (EC50)) was 2.45 nM; in assay [1] (read-out: LE_1b (EC50, range)), less than 5.46 nM; in assay [2] (read-out: LE_1a (EC50)), 2.97 nM; in assay [2] (read-out: LE_1a (EC50, range)) it was less than 5.46 nM.

`CC[C@@H]1C[C@@H](C)CC/C=C\[C@@H]2C[C@@]2(C(=O)NS(=O)(=O)C2CC2)NC(=O)[C@@H]2C[C@@H](Oc3nccc4c5c(ccc34)N(C)CCO5)CN2C(=O)[C@H]1NC(=O)OC(C)(C)C` [Compound 5307, tert-butyl ((2R,6S,7R,9S,13aS,14aR,16aS,Z)-14a-((cyclopropylsulfonyl)carbamoyl)-7-ethyl-9-methyl-2-((4-methyl-3,4-dihydro-2H-[1,4]oxazino[2,3-f]isoquinolin-7-yl)oxy)-5,16-dioxo-1,2,3,5,6,7,8,9,10,11,13a,14,14a,15,16,16a-hexadecahydrocyclopropa[e]pyrrolo[1,2-a][1,4]diazacyclopentadecin-6-yl)carbamate]: the EC50 is less than 5.46 nM in assay [1] (read-out: LE_1b (EC50, range)) and 4.82 to 103 nM in assay [2] (read-out: LE_1a (EC50, range)).

For `CC[C@@H]1C[C@H](C)CC/C=C\[C@@H]2C[C@@]2(C(=O)NS(=O)(=O)C2CC2)NC(=O)[C@@H]2C[C@@H](Oc3nccc4c5c(ccc34)N(C)CCO5)CN2C(=O)[C@H]1NC(=O)OC(C)(C)C` [Compound 5308, tert-butyl ((2R,6S,7R,9R,13aS,14aR,16aS,Z)-14a-((cyclopropylsulfonyl)carbamoyl)-7-ethyl-9-methyl-2-((4-methyl-3,4-dihydro-2H-[1,4]oxazino[2,3-f]isoquinolin-7-yl)oxy)-5,16-dioxo-1,2,3,5,6,7,8,9,10,11,13a,14,14a,15,16,16a-hexadecahydrocyclopropa[e]pyrrolo[1,2-a][1,4]diazacyclopentadecin-6-yl)carbamate], the 50% effective concentration (EC50) in assay [1] (read-out: LE_1b (EC50, range)) is less than 5.46 nM; in assay [2] (read-out: LE_1a (EC50, range)) it was less than 5.46 nM.
